This passage reports Activity results from ChEMBL document CHEMBL2203024, “Synthesis of 6"-triazole-substituted α-GalCer analogues as potent iNKT cell stimulating ligands” (Bioorg Med Chem, 2012).

Calls of active or inactive are those of the source. The calls are words filed in the database; no cut-off is given here.

The assay has as its system iNKT. The assay is described as follows: Antigenic activity in mouse iNKT cells co-cultured with N38-2C12 cells assessed as potentiation of glycolipid loaded bone marrow dendritic cells-induced IL-2 secretion by ELISA. The format is functional, cell-based.
As for `CCCCCCCCCCCCCCCCCCCCCCCCCC(=O)N[C@@H](CO[C@H]1O[C@H](Cn2cc(CCCc3ccccc3)nn2)[C@H](O)[C@H](O)[C@H]1O)[C@H](O)[C@H](O)CCCCCCCCCCCCCC`, the result was Active.

Regarding `CCCCCCCCCCCCCCCCCCCCCCCCCC(=O)N[C@@H](CO[C@H]1O[C@H](Cn2cc(Cc3ccccc3)nn2)[C@H](O)[C@H](O)[C@H]1O)[C@H](O)[C@H](O)CCCCCCCCCCCCCC`, the result was Active.

In the case of `CCCCCCCCCCCCCCCCCCCCCCCCCC(=O)N[C@@H](CO[C@H]1O[C@H](Cn2cc(CCc3ccccc3)nn2)[C@H](O)[C@H](O)[C@H]1O)[C@H](O)[C@H](O)CCCCCCCCCCCCCC`, the result was Active.

On to `CCCCCCCCCCCCCCCCCCCCCCCCCC(=O)N[C@@H](CO[C@H]1O[C@H](Cn2ccnn2)[C@H](O)[C@H](O)[C@H]1O)[C@H](O)[C@H](O)CCCCCCCCCCCCCC`, for which the outcome was Active.

Take `CCCCCCCCCCCCCCCCCCCCCCCCCC(=O)N[C@@H](CO[C@H]1O[C@H](Cn2cc(-c3ccccc3)nn2)[C@H](O)[C@H](O)[C@H]1O)[C@H](O)[C@H](O)CCCCCCCCCCCCCC`: the outcome was Active.

Turning to `CCCCCCCCCCCCCCCCCCCCCCCCCC(=O)N[C@@H](CO[C@H]1O[C@H](Cn2cc(CCCC)nn2)[C@H](O)[C@H](O)[C@H]1O)[C@H](O)[C@H](O)CCCCCCCCCCCCCC`, the result was Active.
